Assay results taken from ChEMBL document CHEMBL5257091, “Hydrazinecarbonyl-thiazol-2-acetamides with pronounced apoptotic behavior: synthesis, in vitro/in vivo anti-proliferative activity and molecular modeling simulations” (Bioorg Med Chem Lett, 2023).

Experiments:
HEp-2 = assay: Antiproliferative activity against human HEp-2 cells assessed as inhibition of cell growth incubated for 24 hrs by MTT assay; type: functional, cell-based; settings: HEp-2, 24 h
HeLa [1] = assay: Induction of cell cycle arrest in human HeLa cells assessed as accumulation of cells at G0/G1 phase incubated for 24 hrs by PI staining based flow cytometry analysis (reference value: 61.08%); type: functional
MCF7 [2] = assay: Induction of apoptosis in human MCF7 cells assessed as late apoptotic cells incubated for 24 hrs by annexin V-FITC/PI staining based flow cytometry analysis (reference value: 0.21%); type: functional
MCF7 [3] = assay: Induction of cell cycle arrest in human MCF7 cells assessed as accumulation of cells at G2/M phase incubated for 24 hrs by PI staining based flow cytometry analysis (reference value: 12.2%); type: functional
[4] = Selectivity index, ratio of IC50 for cytotoxicity against human WI-38 cells to IC50 for antiproliferative activity against human HepG2 cells; type: toxicity, cell-based; settings: WI-38 cells and HepG2 cells, read-out: Ratio IC50
HepG2 = assay: Antiproliferative activity against human HepG2 cells assessed as inhibition of cell growth incubated for 24 hrs by MTT assay; type: functional, cell-based; settings: HepG2, 24 h
MCF7 [5] = assay: Induction of cell cycle arrest in human MCF7 cells assessed as cell debris incubated for 24 hrs by PI staining based flow cytometry analysis (reference value: 2.12%); type: functional
Dihydrofolate reductase = biological target: T1, Dihydrofolate reductase (Homo sapiens, UniProt P00374); assay: Inhibition of DHFR (unknown origin) incubated for 2 to 5 mins by absorbance based analysis
T1 sequence (P00374 whole entry): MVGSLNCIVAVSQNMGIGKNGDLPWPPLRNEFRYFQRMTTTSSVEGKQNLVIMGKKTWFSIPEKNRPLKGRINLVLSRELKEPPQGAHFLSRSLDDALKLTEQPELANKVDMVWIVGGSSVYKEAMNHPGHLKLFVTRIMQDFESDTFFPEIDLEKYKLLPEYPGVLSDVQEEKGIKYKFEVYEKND

MCF7 [6] = assay: Induction of cell cycle arrest in human MCF7 cells assessed as accumulation of cells at pre-G1 phase incubated for 24 hrs by PI staining based flow cytometry analysis (reference value: 2.11%); type: functional
[7] = Toxicity in Swiss albino mouse implanted with mouse Ehrlich cells assessed as reduction in body weight gain at 10 mg/kg, iv administered once daily for 20 days relative to control; type: organism-based; parameters: scale not given: the % may be the effect or the level left; settings: in vivo, 480 h, time 20 day
[8] = Selectivity index, ratio of IC50 for cytotoxicity against human WI-38 cells to IC50 for antiproliferative activity against human HCT-116 cells; type: toxicity, cell-based; settings: WI-38 cells and HCT-116 cells, read-out: Ratio IC50
HeLa [9] = assay: Induction of cell cycle arrest in human HeLa cells assessed as accumulation of cells at pre-G1 phase incubated for 24 hrs by PI staining based flow cytometry analysis (reference value: 1.85%); type: functional
HeLa [10] = assay: Antiproliferative activity against human HeLa cells assessed as inhibition of cell growth incubated for 24 hrs by MTT assay; type: functional, cell-based
HeLa [11] = assay: Induction of cell cycle arrest in human HeLa cells assessed as accumulation of cells at S phase incubated for 24 hrs by PI staining based flow cytometry analysis (reference value: 28.54%); type: functional
MCF7 [12] = assay: Induction of cell cycle arrest in human MCF7 cells assessed as cell aggregates incubated for 24 hrs by PI staining based flow cytometry analysis (reference value: 1.75%); type: functional
[13] = biological target: Epidermal growth factor receptor (Homo sapiens, UniProt P00533); assay: Inhibition of EGFR (unknown origin) by fluorimetric assay
Sequence of Epidermal growth factor receptor (P00533 whole entry): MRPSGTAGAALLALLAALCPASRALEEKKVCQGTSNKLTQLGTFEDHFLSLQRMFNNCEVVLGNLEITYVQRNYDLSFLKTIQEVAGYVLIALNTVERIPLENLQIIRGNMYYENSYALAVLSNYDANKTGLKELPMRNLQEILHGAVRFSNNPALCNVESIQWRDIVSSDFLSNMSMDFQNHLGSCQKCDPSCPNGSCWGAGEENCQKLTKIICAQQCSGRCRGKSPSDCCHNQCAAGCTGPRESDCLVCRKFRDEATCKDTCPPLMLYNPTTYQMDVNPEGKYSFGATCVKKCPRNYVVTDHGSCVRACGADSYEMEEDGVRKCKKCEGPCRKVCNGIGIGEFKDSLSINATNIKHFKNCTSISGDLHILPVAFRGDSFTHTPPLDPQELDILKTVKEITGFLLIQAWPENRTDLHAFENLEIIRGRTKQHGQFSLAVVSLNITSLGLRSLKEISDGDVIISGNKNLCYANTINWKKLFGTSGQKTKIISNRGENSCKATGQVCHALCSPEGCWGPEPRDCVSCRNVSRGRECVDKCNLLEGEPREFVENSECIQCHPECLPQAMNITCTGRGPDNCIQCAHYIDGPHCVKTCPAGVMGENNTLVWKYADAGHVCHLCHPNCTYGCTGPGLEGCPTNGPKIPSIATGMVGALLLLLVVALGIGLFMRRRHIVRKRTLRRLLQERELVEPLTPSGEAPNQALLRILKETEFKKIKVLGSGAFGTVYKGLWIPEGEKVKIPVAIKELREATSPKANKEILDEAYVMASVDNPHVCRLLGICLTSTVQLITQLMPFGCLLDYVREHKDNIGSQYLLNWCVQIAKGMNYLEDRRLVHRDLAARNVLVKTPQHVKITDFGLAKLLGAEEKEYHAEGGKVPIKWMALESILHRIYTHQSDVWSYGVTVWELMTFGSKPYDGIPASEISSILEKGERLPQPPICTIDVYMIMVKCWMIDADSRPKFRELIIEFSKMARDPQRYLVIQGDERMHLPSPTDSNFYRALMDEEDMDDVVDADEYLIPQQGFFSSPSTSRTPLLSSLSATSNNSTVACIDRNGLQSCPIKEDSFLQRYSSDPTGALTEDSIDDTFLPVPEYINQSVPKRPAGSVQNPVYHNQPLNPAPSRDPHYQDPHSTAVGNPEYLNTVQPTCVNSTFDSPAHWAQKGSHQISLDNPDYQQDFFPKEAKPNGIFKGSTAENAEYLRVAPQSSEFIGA

HeLa [14] = assay: Induction of apoptosis in human HeLa cells assessed as total apoptotic cells incubated for 24 hrs by annexin V-FITC/PI staining based flow cytometry analysis (reference value: 1.85%); type: functional
[15] = Selectivity index, ratio of IC50 for cytotoxicity against human WI-38 cells to IC50 for antiproliferative activity against human HEp-2 cells; type: toxicity, cell-based; settings: WI-38 cells and HEp-2 cells, read-out: Ratio IC50
[16] = Selectivity index, ratio of IC50 for cytotoxicity against human WI-38 cells to IC50 for antiproliferative activity against human PC-3 cells; type: toxicity, cell-based; settings: WI-38 cells and PC-3 cells, read-out: Ratio IC50
HeLa [17] = assay: Induction of apoptosis in human HeLa cells assessed as necrotic cells incubated for 24 hrs by annexin V-FITC/PI staining based flow cytometry analysis (reference value: 1.15%); type: functional
HeLa [18] = assay: Induction of cell cycle arrest in human HeLa cells assessed as cell aggregates incubated for 24 hrs by PI staining based flow cytometry analysis (reference value: 1.46%); type: functional
MCF7 [19] = assay: Induction of cell cycle arrest in human MCF7 cells assessed as accumulation of cells at G0/G1 phase incubated for 24 hrs by PI staining based flow cytometry analysis (reference value: 52.61%); type: functional
MCF7 [20] = assay: Induction of cell cycle arrest in human MCF7 cells assessed as accumulation of cells at S phase incubated for 24 hrs by PI staining based flow cytometry analysis (reference value: 35.19%); type: functional
Ehrlich = assay: Antitumor activity against mouse Ehrlich cells implanted in Swiss albino mouse assessed as reduction in tumor volume at 10 mg/kg, iv administered once daily for 20 days relative to control; type: functional; parameters: scale not given: the % may be the effect or the level left; settings: time 20 day
PC-3 = assay: Antiproliferative activity against human PC-3 cells assessed as inhibition of cell growth incubated for 24 hrs by MTT assay; type: functional, cell-based; settings: PC-3, 24 h
[21] = Selectivity index, ratio of IC50 for cytotoxicity against human WI-38 cells to IC50 for antiproliferative activity against human HeLa cells; type: toxicity, cell-based; settings: WI-38 cells and HeLa cells, read-out: Ratio IC50
[22] = Selectivity index, ratio of IC50 for cytotoxicity against human WI-38 cells to IC50 for antiproliferative activity against human MCF7 cells; type: toxicity, cell-based; settings: WI-38 cells and MCF7 cells, read-out: Ratio IC50
[23] = Toxicity in Swiss albino mouse implanted with mouse Ehrlich cells assessed as mean body weight at 10 mg/kg, iv administered once daily for 20 days (reference value: 30 g); type: organism-based; settings: in vivo, 480 h, time 20 day
MCF7 [24] = assay: Induction of apoptosis in human MCF7 cells assessed as necrotic cells incubated for 24 hrs by annexin V-FITC/PI staining based flow cytometry analysis (reference value: 1.28%); type: functional
MCF7 [25] = assay: Induction of apoptosis in human MCF7 cells assessed as total apoptotic cells incubated for 24 hrs by annexin V-FITC/PI staining based flow cytometry analysis (reference value: 2.11%); type: functional
[26] = Cytotoxicity against human WI-38 cells assessed as inhibition of cell growth incubated for 24 hrs by MTT assay; type: toxicity, cell-based
HeLa [27] = assay: Induction of apoptosis in human HeLa cells assessed as early apoptotic cells incubated for 24 hrs by annexin V-FITC/PI staining based flow cytometry analysis (reference value: 0.54%); type: functional
MCF7 [28] = assay: Induction of apoptosis in human MCF7 cells assessed as early apoptotic cells incubated for 24 hrs by annexin V-FITC/PI staining based flow cytometry analysis (reference value: 0.62%); type: functional
HCT-116 = assay: cells; settings: Homo sapiens, HCT-116, 24 h
Description: Antiproliferative activity against human HCT-116 cells assessed as inhibition of cell growth incubated for 24 hrs by MTT assay

HeLa [29] = assay: Induction of cell cycle arrest in human HeLa cells assessed as cell debris incubated for 24 hrs by PI staining based flow cytometry analysis (reference value: 2.13%); type: functional
HeLa [30] = assay: Induction of apoptosis in human HeLa cells assessed as late apoptotic cells incubated for 24 hrs by annexin V-FITC/PI staining based flow cytometry analysis (reference value: 0.16%); type: functional
HeLa [31] = assay: Induction of cell cycle arrest in human HeLa cells assessed as accumulation of cells at G2/M phase incubated for 24 hrs by PI staining based flow cytometry analysis (reference value: 10.38%); type: functional
MCF7 [32] = assay: Antiproliferative activity against human MCF7 cells assessed as inhibition of cell growth incubated for 24 hrs by MTT assay; type: functional, cell-based; settings: MCF7, 24 h

CC(=O)Nc1nc(C(=O)NNC(=O)CCN2CCCCC2)cs1
IC50 (HEp-2): 7.62 µM
Activity (HeLa [1]): 52.72%
Activity (MCF7 [2]): 22.72%
Activity (MCF7 [3]): 3.91%
selectivity ratio [4]: 6.43
IC50 (HepG2): 6.21 µM
Activity (MCF7 [5]): 1.46%
IC50 (Dihydrofolate reductase): 0.262 µM
Activity (MCF7 [6]): 36.22%
Activity [7]: 18.3%
selectivity ratio [8]: 3.37
Activity (HeLa [9]): 45.81%
IC50 (HeLa [10]): 1.67 µM
Activity (HeLa [11]): 44.39%
Activity (MCF7 [12]): 2.19%
IC50 [13]: 9.2 µM
Activity (HeLa [14]): 45.81%
selectivity ratio [15]: 5.24
selectivity ratio [16]: 4.9
Activity (HeLa [17]): 7.41%
Activity (HeLa [18]): 1.55%
Activity (MCF7 [19]): 57.43%
Activity (MCF7 [20]): 38.66%
Activity (Ehrlich): 72.3%
IC50 (PC-3): 8.14 µM
selectivity ratio [21]: 23.9
selectivity ratio [22]: 8.19
Activity [23]: 29.4 g
Activity (MCF7 [24]): 5.19%
Activity (MCF7 [25]): 36.22%
IC50 at 24 h [26]: 39.9 µM
Activity (HeLa [27]): 14.01%
Activity (MCF7 [28]): 8.31%
IC50 (HCT-116): 11.8 µM
Activity (HeLa [29]): 2.19%
Activity (HeLa [30]): 24.39%
Activity (HeLa [31]): 2.89%
IC50 (MCF7 [32]): 4.87 µM

CC(=O)Nc1nc(C(=O)NNC(=O)CCCl)cs1
IC50 (HEp-2): 93.2 µM
IC50 (HeLa [10]): 86.4 µM
IC50 (MCF7 [32]): 69.2 µM

CC(=O)Nc1nc(C(=O)NNC(=O)CCN2CCN(Cc3ccccc3)CC2)cs1
IC50 (HEp-2): 39 µM
IC50 (HepG2): 28.7 µM
IC50 (HeLa [10]): 23.6 µM
IC50 (PC-3): 34.4 µM
IC50 (HCT-116): 37.1 µM
IC50 (MCF7 [32]): 29.3 µM

CC(=O)Nc1nc(C(=O)NNC(=O)CN2CCCCC2)cs1
IC50 (HEp-2): 19.7 µM
selectivity ratio [4]: 4.88
IC50 (HepG2): 12.4 µM
selectivity ratio [8]: 2.47
IC50 (HeLa [10]): 13.9 µM
selectivity ratio [15]: 3.07
selectivity ratio [16]: 3.35
IC50 (PC-3): 18 µM
selectivity ratio [21]: 4.34
selectivity ratio [22]: 3.68
IC50 at 24 h [26]: 60.5 µM
IC50 (HCT-116): 24.5 µM
IC50 (MCF7 [32]): 16.4 µM

CC(=O)Nc1nc(C(=O)NNC(=O)CN2CCOCC2)cs1
IC50 (HEp-2): 17.2 µM
selectivity ratio [4]: 1.79
IC50 (HepG2): 20.8 µM
selectivity ratio [8]: 1.41
IC50 (HeLa [10]): 15.5 µM
selectivity ratio [15]: 2.17
selectivity ratio [16]: 1.25
IC50 (PC-3): 29.8 µM
selectivity ratio [21]: 2.42
selectivity ratio [22]: 2.73
IC50 at 24 h [26]: 37.2 µM
IC50 (HCT-116): 26.4 µM
IC50 (MCF7 [32]): 13.6 µM

CC(=O)Nc1nc(C(=O)NNC(=O)CN2CCN(Cc3ccccc3)CC2)cs1
IC50 (HEp-2): 84.8 µM
IC50 (HepG2): 74.5 µM
IC50 (HeLa [10]): 52.6 µM
IC50 (PC-3): 92.3 µM
IC50 (HCT-116): 66 µM
IC50 (MCF7 [32]): 57.7 µM

COc1cccc2c1C(=O)c1c(O)c3c(c(O)c1C2=O)C[C@@](O)(C(=O)CO)C[C@@H]3O[C@H]1C[C@H](N)[C@H](O)[C@H](C)O1 [DOXORUBICIN]
Activity [7]: 25%
Activity (Ehrlich): 78.9%
Activity [23]: 27 g
